The record followed here is ChEMBL document CHEMBL1201862, “PubChem BioAssay data set” (2004).

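Test compounds were applied to cells in 96-well plates for 48 hours at 5 doses. GI50 = concentration required for 50% inhibition of growth.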 Activity calls are given as the source filed them. No stated cut-off is given here; in the data, active = GI50 up to about 1.1 µM and inactive = higher.

Among the test systems are SK-OV-3; HCT-116; K562; HOP-92; U-251; SW-620; MOLT-4; COLO 205; ACHN; A498; NCI-H23; M14; SNB-19; SR; OVCAR-5; HT-29; KM-20L2; LOX IMVI; NCI/ADR-RES; MDA-MB-231.
What all share (assay): NCI tumour cell line growth inhibition, 48 h

For the compound `CNc1ccc(/C=C2\C=Cc3ccccc32)cc1`, the GI50 in the assay with SK-OV-3 was 26.5 µM (inactive); in the assay with HCT-116, 33.1 µM (inactive); in the assay with K562 it was 32 µM (inactive); in the assay on HOP-92 it was 19.1 µM (inactive); with U-251 it was 32.4 µM (inactive); with SW-620 it was 33.1 µM (inactive). The GI50 is 41.9 µM (inactive) in the assay on MOLT-4; 18.4 µM (inactive) in the assay with COLO 205; 20.3 µM (inactive) in the assay on ACHN; 28.1 µM (inactive) in the assay on A498; 16.7 µM (inactive) in the assay on NCI-H23; 16.3 µM (inactive) with M14. Further, the GI50 was 61.4 µM (inactive) with SNB-19; 53.2 µM (inactive) in the assay with SR; 18.8 µM (inactive) in the assay with OVCAR-5; 18.7 µM (inactive) in the assay with HT-29; 19.1 µM (inactive) in the assay on KM-20L2; 11.5 µM (inactive) in the assay with LOX IMVI.

In the case of `O=C1c2cc([N+](=O)[O-])cc3cc([N+](=O)[O-])cc(c23)C(=O)N1CCCNCCNCCCN1C(=O)c2cc([N+](=O)[O-])cc3cc([N+](=O)[O-])cc(c23)C1=O`, the GI50 in the assay on NCI/ADR-RES was 1.34 µM (inactive); in the assay with SK-OV-3, 1.79 µM (inactive); in the assay on HCT-116 it was 0.0102 µM (active); in the assay on K562 it was < 0.0167 µM (active); in the assay on HOP-92 it was 0.337 µM (active); in the assay with U-251 it was 0.0395 µM (active). In addition, the GI50 is 0.073 µM (active) with SW-620; < 0.01 µM (active) in the assay on MOLT-4; 0.041 µM (active) with COLO 205; 0.0296 µM (active) in the assay on ACHN; 0.769 µM (active) in the assay with A498; 0.0931 µM (active) in the assay with NCI-H23. The GI50 in the assay with M14 was 0.384 µM (active); in the assay on SNB-19, 0.326 µM (active); in the assay on OVCAR-5, 0.268 µM (active); in the assay on HT-29, 0.0201 µM (active); in the assay on MDA-MB-231 it was 0.414 µM (active); with KM-20L2, 0.129 µM (active). In the assay with LOX IMVI, the GI50 was 0.0142 µM (active).

Regarding `CC(C)(C)OC(=O)C1=C(O)C(C(=O)OC(C)(C)C)C23CCCCC12C(C(=O)OC(C)(C)C)C(O)=C3C(=O)OC(C)(C)C` (stereo not drawn), the GI50 in the assay with SK-OV-3, in the assay with HCT-116, in the assay on K562, in the assay with HOP-92, with U-251 and in the assay on SW-620 was > 100 µM (inactive) each time. Besides, the GI50 in the assay on MOLT-4, in the assay with COLO 205, with ACHN, with A498, in the assay with NCI-H23 and with M14 was > 100 µM (inactive) each time. Also, the GI50 in the assay on SNB-19, with SR, in the assay with OVCAR-5, in the assay on HT-29, in the assay on KM-20L2 and in the assay with LOX IMVI was > 100 µM (inactive) throughout.

For `NNC(=S)N/N=C(\c1nc2ccc(Cl)cc2nc1O)C(O)c1cccc([N+](=O)[O-])c1` (stereo not drawn), the GI50 in the assay with SK-OV-3 was > 100 µM (inactive); with HCT-116, > 31.6 µM (inactive); with K562 it was > 45.3 µM (inactive); with HOP-92, > 86.3 µM (inactive); in the assay with U-251 it was > 100 µM (inactive); in the assay with SW-620, 20.9 µM (inactive). Also, the GI50 was > 100 µM (inactive) with MOLT-4; > 42.7 µM (inactive) with COLO 205; > 100 µM (inactive) in the assay on ACHN; > 100 µM (inactive) in the assay on A498; > 42.8 µM (inactive) in the assay on NCI-H23; > 53.5 µM (inactive) with M14. Moreover, the GI50 in the assay on SNB-19 was > 100 µM (inactive); with SR it was 15.9 µM (inactive); in the assay with OVCAR-5, > 100 µM (inactive); in the assay with HT-29, > 36.1 µM (inactive); in the assay on KM-20L2 it was > 100 µM (inactive); with LOX IMVI it was > 40.5 µM (inactive).

Take `CN1N=C(N)c2cn(C3OC(COP(=O)(O)O)C(O)C3O)c3ncnc1c23` (stereo not drawn): the GI50 in the assay with NCI/ADR-RES is 4.08 µM (inactive); in the assay with SK-OV-3 it was 0.822 µM (active); in the assay with HCT-116 it was 41.8 µM (inactive); in the assay on K562 it was 385 µM (inactive); in the assay on HOP-92 it was 0.5 µM (active); in the assay with U-251, 379 µM (inactive). The GI50 in the assay with SW-620 is 91.8 µM (inactive); in the assay on MOLT-4, 0.622 µM (active); in the assay with COLO 205, 106 µM (inactive); in the assay on ACHN, 3.16 µM (inactive); in the assay with A498 it was 33.7 µM (inactive); with NCI-H23, 25.9 µM (inactive). The GI50 in the assay on M14 is 7.33 µM (inactive); in the assay with SNB-19, 53.3 µM (inactive); in the assay with SR, 10.8 µM (inactive); with OVCAR-5, 9.84 µM (inactive); in the assay on HT-29, 17.3 µM (inactive); with MDA-MB-231 it was 10.9 µM (inactive). Also, the GI50 with KM-20L2 was 58.5 µM (inactive); in the assay with LOX IMVI it was 1.03 µM (active).

On to `CCOC(=O)c1csc(CCCCCCc2nc(C(=O)OCC)cs2)n1`, for which the GI50 in the assay with SK-OV-3 was > 65.5 µM (inactive); with HCT-116 it was 35.9 µM (inactive); with K562, > 40.1 µM (inactive); with HOP-92 it was > 58.2 µM (inactive); with U-251, 24 µM (inactive); with SW-620, > 41.7 µM (inactive). Besides, the GI50 in the assay with MOLT-4 is > 75 µM (inactive); in the assay on COLO 205, > 52.6 µM (inactive); in the assay on ACHN, > 84.9 µM (inactive); in the assay with A498 it was > 100 µM (inactive); with NCI-H23, 43.2 µM (inactive); in the assay on M14, > 100 µM (inactive). Also, the GI50 in the assay on SNB-19 was > 76.4 µM (inactive); in the assay with SR it was > 100 µM (inactive); with OVCAR-5, > 100 µM (inactive); in the assay on HT-29, > 70 µM (inactive); in the assay on KM-20L2, > 100 µM (inactive); in the assay with LOX IMVI, 32.4 µM (inactive).

Consider `Clc1ccc2cccc3c2c1C1OC3c2ccccc21` (stereo not drawn), for which the GI50 in the assay on SK-OV-3 was > 100 µM (inactive); with HCT-116, > 100 µM (inactive); with K562 it was 66.7 µM (inactive); in the assay with HOP-92, 70.8 µM (inactive); in the assay with U-251 it was > 100 µM (inactive); in the assay on SW-620 it was > 100 µM (inactive). Moreover, the GI50 in the assay on MOLT-4, with COLO 205, in the assay with ACHN, with A498, in the assay with NCI-H23 and in the assay on M14 was > 100 µM (inactive) in each case. In addition, the GI50 is > 100 µM (inactive) in the assay on SNB-19; > 100 µM (inactive) with SR; > 100 µM (inactive) in the assay with OVCAR-5; 36.6 µM (inactive) with HT-29; 78.9 µM (inactive) in the assay with KM-20L2; > 100 µM (inactive) with LOX IMVI.

In the case of `O=Cc1ccc(-c2ccc(-c3ccc(C=O)s3)o2)s1`, the GI50 was 61.5 µM (inactive) in the assay with NCI/ADR-RES; > 97.3 µM (inactive) in the assay on SK-OV-3; 8.53 µM (inactive) in the assay with HCT-116; 28.2 µM (inactive) with K562; > 89.3 µM (inactive) in the assay on HOP-92; 1.34 µM (inactive) in the assay on U-251. Moreover, the GI50 in the assay on SW-620 was > 80.7 µM (inactive); in the assay with MOLT-4, > 75.7 µM (inactive); with COLO 205 it was 18.7 µM (inactive); in the assay with ACHN, > 100 µM (inactive); in the assay on A498 it was 0.284 µM (active); in the assay on NCI-H23, > 100 µM (inactive). For the same compound, the GI50 in the assay on M14 is > 100 µM (inactive); in the assay on SNB-19, > 88.1 µM (inactive); with SR, > 40.8 µM (inactive); in the assay with OVCAR-5, 2.14 µM (inactive); in the assay on HT-29, > 96.2 µM (inactive); in the assay with MDA-MB-231, > 100 µM (inactive). For the same compound, the figures for the GI50 in the assay on KM-20L2 and in the assay with LOX IMVI were 31.3 µM (inactive) and > 100 µM (inactive), respectively.

In the case of `N#Cc1c(N)c(C(=O)O)nn(-c2cccc(C(F)(F)F)c2)c1=O`, the GI50 is > 100 µM (inactive) in the assay with SK-OV-3; > 100 µM (inactive) in the assay on HCT-116; 64.7 µM (inactive) in the assay on K562; 43.4 µM (inactive) in the assay with HOP-92; > 100 µM (inactive) in the assay with U-251; > 100 µM (inactive) with SW-620. Moreover, the GI50 in the assay on MOLT-4 is > 100 µM (inactive); in the assay on COLO 205 it was > 100 µM (inactive); with ACHN, > 100 µM (inactive); in the assay on A498, 41 µM (inactive); in the assay with NCI-H23 it was > 100 µM (inactive); with M14, > 100 µM (inactive). Further, the GI50 in the assay on SNB-19, in the assay on SR, with OVCAR-5, with HT-29, in the assay on KM-20L2 and with LOX IMVI was > 100 µM (inactive) throughout.

In the case of `CN(C)C(=S)/N=c1\ss/c(=N\C(=S)N(C)C)n1-c1ccc(Cl)cc1`, the GI50 in the assay on SK-OV-3, in the assay with HCT-116, with K562, in the assay with HOP-92, in the assay with U-251 and in the assay with SW-620 was > 100 µM (inactive) each time. The GI50 in the assay on MOLT-4, in the assay on COLO 205, in the assay on ACHN, in the assay with A498, in the assay on NCI-H23 and with M14 was > 100 µM (inactive) in each case. For the same compound, the GI50 in the assay on SNB-19, with SR, in the assay with OVCAR-5, in the assay on HT-29, in the assay on KM-20L2 and in the assay with LOX IMVI was > 100 µM (inactive) throughout.

`C=C1C(=O)OC2/C=C(\C=O)CC/C=C(\C)C(O)C[C@@H]12` (stereo partly drawn): the GI50 was 21.3 µM (inactive) in the assay with SK-OV-3; 1.68 µM (inactive) in the assay on HCT-116; 3.33 µM (inactive) in the assay with K562; 5.9 µM (inactive) with HOP-92; 18.8 µM (inactive) in the assay on U-251; 2.72 µM (inactive) in the assay on SW-620. Besides, the GI50 is 2.77 µM (inactive) in the assay on MOLT-4; 3.94 µM (inactive) in the assay with COLO 205; 7.35 µM (inactive) in the assay on ACHN; 10.2 µM (inactive) in the assay on A498; 5.18 µM (inactive) with NCI-H23; 3.36 µM (inactive) in the assay on M14. Also, the GI50 in the assay with SNB-19 is 15.4 µM (inactive); in the assay with SR, 2.8 µM (inactive); in the assay with OVCAR-5, 23.6 µM (inactive); in the assay on HT-29 it was 3.08 µM (inactive); with KM-20L2, 9.25 µM (inactive); in the assay with LOX IMVI, 6.18 µM (inactive).
